In patent publication US20250127790A1, “COMBINATION THERAPY USING VPS34 INHIBITORS” (Deciphera Pharmaceuticals, LLC, priority 2021, published 2025):

What was measured:
[1] = test system: Renca renal cell carcinoma cells; assay: IncuCyte live-cell imaging, cell confluence, Renca cells; assay type: cell-based; settings: 2 μM Compound 1, ADU-S100, up to 72 hours
Procedure: Renca cells were treated with a combination of DMSO or 2 μM Compound 1 alone or in combination with STING agonist ADU-S100 for 24 hours. Treatment with 1 μM staurosporine was used as a positive control for apoptosis induction. To assess cell proliferation, 1000 cells/well were plated in 96-well plates. After 24 h, cells were treated with compounds in 100 μL complete medium. Phase-contrast images (10×) were acquired every 3 h for 24-72 h and cell confluence (%) was calculated using the IncuCyte S3 live-cell analysis system (Sartorius). For monitoring apoptosis, 5 μM of IncuCyte Caspase-3/7 Green Dye (#4440, Sartorius) was added to the medium at the time of treatment. Both phase-contrast and green fluorescent images were captured. Caspase 3/7 induction was calculated by counting green fluorescent objects per mm^2 and dividing it by the percentage of cell confluency.

[2] = test system: CT26 colorectal cancer cells; assay: Cytokine secretion assay, combination with cGAMP, CT26 cells; assay type: cell-based, mouse; settings: 24 hours, 5 μM Compound 1 or 10 μM Compound 2, 10 mg/mL cGAMP
Procedure: (§1) CT26 cells were treated for 24 hours with DMSO or VPS34 inhibitors (5 μM Compound 1 or 10 μM Compound 2) in combination with 10 mg/mL STING agonist cGAMP (green bars). Cells were washed with PBS and RNA was isolated using the PureLink RNA kit (#12183018A, Thermo Fisher Scientific) according to the manufacturer's protocol. Genomic DNA was removed using DNA-binding columns (RNeasy plus kit, #74134, Qiagen) and/or DNase treatment (#12185010, Thermo Fisher Scientific). RNA was quantified using NanoDrop (Thermo Fisher Scientific) and 50 ng/μL RNA was used for cDNA synthesis with SuperScript IV VILO Master Mix (#11756050, Thermo Fisher Scientific). Quantitative RT-PCR (qRT-PCR) was run with diluted cDNA (1:25 or 1:12.5), PowerUp SYBR Green Master Mix (#A25741, Thermo Fisher Scientific), and 200 nM primers (see below) on a CFX Connect RT-PCR system (BioRad). Data was analyzed using the ΔΔCT method. Results are mean±SEM of three independent experiments.
(§2) Cell culture medium was centrifuged at 1600 rpm for 10 min at 4° C. and obtained supernatant stored at −80° C. Cytokine levels were quantified using following Meso Scale Discovery (MSD) assays: mouse U-PLEX RANTES/CCL5 (#K152A2K) and U-PLEX IP-10/CXCL10 (#K152UFK). Assays were run on the SECTOR Quickplex Imager and analyzed using Discovery Workbench version 4.0 (MSD).

[3] = test system: 786-O renal cell carcinoma cells; assay: qRT-PCR with siRNA knockdown of STING pathway genes, 786-O cells; assay type: cell-based, Human; settings: 2 μM, 24 h
Procedure: Quantitative reverse-transcriptase polymerase chain reaction (RT-PCR) assay 786-O cells were grown in RPMI-1640 medium containing 10% fetal bovine serum. Cells were then incubated for 2 days at 37 degrees Celsius, 5% CO2, and 95% humidity. A498 cells were transfected with scrambled siRNA control (siSCR) or siRNA targeting TBK1 (siTBK1), STING (siSTING) or CGAS (siCGAS). After 48 h cells were treated with DMSO or 2 μM of VPS34 inhibitor (Compound 1 or Compound 2) for 24 h. Cells were washed with PBS and RNA was isolated using the PureLink RNA kit (#12183018A, Thermo Fisher Scientific) according to the manufacturer's protocol. Genomic DNA was removed using DNA-binding columns (RNeasy plus kit, #74134, Qiagen) and/or DNase treatment (#12185010, Thermo Fisher Scientific). RNA was quantified using NanoDrop (Thermo Fisher Scientific) and 50 ng/μL RNA was used for cDNA synthesis with SuperScript IV VILO Master Mix (#11756050, Thermo Fisher Scientific). Quantitative RT-PCR (qRT-PCR) was run with diluted cDNA (1:25 or 1:12.5), PowerUp SYBR Green Master Mix (#A25741, Thermo Fisher Scientific), and 200 nM primers (see below) on a CFX Connect RT-PCR system (BioRad). Data was analyzed using the ΔΔCT method. Results are mean±SEM of three independent experiments.

[4] = test system: 4T1 breast cancer cells; assay: Cytokine secretion assay, combination with cGAMP, 4T1 cells; assay type: cell-based, mouse; settings: 24 hours, 5 μM Compound 1 or 10 μM Compound 2, 10 mg/ml cGAMP
Procedure: as §1, with “4T1” for “CT26”, “mg/ml” for “mg/mL”
as §2

[5] = test system: A-498 renal cell carcinoma cells; assay: Cytokine secretion assay (MSD) with siRNA knockdown, A-498 cells; assay type: cell-based, human; settings: 24 h; for CCL5 and CXCL10 secretion with siRNA knockdown of CGAS: siCGAS; for CCL5 and CXCL10 secretion with siRNA knockdown of CGAS / increase in CCL5 protein secretion / increase in CXCL10 protein secretion / CCL5 and CXCL10 protein secretion with siRNA knockdown of STING: 2 μM; for CCL5 and CXCL10 secretion with siRNA knockdown of CGAS / CCL5 and CXCL10 protein secretion with siRNA knockdown of STING / CCL5 or CXCL10 protein secretion with siRNA knockdown of TBK1: vs compound alone; for increase in CCL5 protein secretion / increase in CXCL10 protein secretion: siRNA against non-specific controls (siSCR); for CCL5 and CXCL10 protein secretion with siRNA knockdown of STING: siSTING; for CCL5 or CXCL10 protein secretion with siRNA knockdown of TBK1: siTBK1, 2 μM
Procedure: A-498 cells were transfected with scrambled siRNA control (siSCR) or siRNA targeting TBK1 (siTBK1), STING (siSTING) or CGAS (siCGAS). After 48 h cells were treated with DMSO or 2 μM of VPS34 inhibitor (Compound 1 or Compound 2) for 24 h. Cell culture medium was centrifuged at 1600 rpm for 10 min at 4° C. and obtained supernatant stored at −80° C. Cytokine levels were quantified using following Meso Scale Discovery (MSD) assays: human R-PLEX RANTES/CCL5 (#F21ZN), U-PLEX CXCL10/IP-10 (#K151UFK). Assays were run on the SECTOR Quickplex Imager and analyzed using Discovery Workbench version 4.0 (MSD).

| SMILES | cell confluence [1] | CCL5 protein secretion [2] | CXCL10 protein secretion [2] | increase in mRNA expression of CCL5 [3] [fold] | increase in mRNA expression of CXCL10 [3] [fold] | increase in mRNA expression of IFNB1 [3] [fold] | increase in mRNA expression of IRF7 [3] [fold] | CCL5 protein secretion [4] | CXCL10 protein secretion [4] | CCL5 and CXCL10 secretion with siRNA knockdown of CGAS [5] | increase in CCL5 protein secretion [5] [fold] | increase in CXCL10 protein secretion [5] [fold] | CCL5 and CXCL10 protein secretion with siRNA knockdown of STING [5] | CCL5 or CXCL10 protein secretion with siRNA knockdown of TBK1 [5] |
| --- | --- | --- | --- | --- | --- | --- | --- | --- | --- | --- | --- | --- | --- | --- |
| Nc1ncnc2c1ncn2[C@@H]1O[C@@H]2COP(=O)([S-])O[C@@H]3[C@H](O)[C@@H](COP([O-])(=S)O[C@H]2[C@H]1O)O[C@H]3n1cnc2c(N)ncnc21.[Na+].[Na+] (stereo partly shown) [ADU-S100, reference compound] | no effect | – | – | – | – | – | – | – | – | – | – | – | – | – |
| C[C@@H]1COCCN1c1cc(N2CCCC[C@@H]2C(F)(F)F)[nH]c(=O)c1 [Compound 1, 4-((R)-3-methylmorpholino)-6-((R)-2-(trifluoromethyl)piperidin-1-yl)pyridin-2(1H)-one] | decreased | increased | increased | > 3 | ~5 | > 5 | > 2 | increased | increased | down to the levels of DMSO controls | ~2 | ~2 | down to the levels of DMSO controls | non-significant changes |
| C[C@@H]1COCCN1c1cc(=O)n2c(n1)N(Cc1cncc(Cl)c1)[C@H](C(F)(F)F)CC2 [Compound 2, (S)-9-((5-chloropyridin-3-yl)methyl)-2-((R)-3-methylmorpholino)-8-(trifluoromethyl)-6,7,8,9-tetrahydro-4H-pyrimido[1,2-a]pyrimidin-4-one] | – | increased | increased | ~4 | ~5 | ~4 | ~3 | increased | increased | down to the levels of DMSO controls | ~2 | ~2 | down to the levels of DMSO controls | non-significant changes |
